Data on 1 substance can be found in patent US9618513B2, “Compositions and methods for detecting and treating colorectal cancer” (The Regents of the University of Michigan, priority 2014, dated 2017).

In one test the test system is DLD-1 colon cancer cells. Kind of test: In vivo tumor formation of DLD-1 cells in NSG mice. The arrangement: species or system NOD/Shi-scid/IL-2Rγnull (NSG) mice. The text has this:
(A), IL-22 is expressed in colon cancer tissues. IL-22 mRNA was detected by real-time PCR in colon cancer tissues and peripheral blood. *P<0.05 compared to blood, 20 colon cancer patients. (B-D), Endogenous IL-22 promotes colon carcinogenesis. Single cells (10^7) isolated from colon cancer tissue were mixed with anti-IL-22 antibody or control mAb, and then subcutaneously injected to NSG mice. Tumor growth (B), incidence (C), and animal survival (D) are shown. (P<0.05 for all, n=5 per group). (E-G) Recombinant IL-22 promotes colon carcinogenesis. DLD-1 colon cancer cells (10^5) were pre-incubated with IL-22 (20 ng/ml) for 1 hour, and then subcutaneously injected to NSG mice. Tumor growth (E), incidence (F), and animal survival (G) are shown. (P<0.05 for all, n=5 per group). (H, I) IL-22 enhances colon cancer sphere formation. DLD-1 colon cancer cells were pre-incubated for 24 hours with IL-22. Sphere assay was performed with 2,000 cells. Representative image of spheres (H) and the mean numbers of spheres (I) are shown. *P<0.05, n=5. (J) IL-22 increases ALDH1 activity in colon cancer cells. Colon cancer cell lines (DLD-1 and HT29) and two primary colon cancer cells (1, 2) were cultured with IL-22 for 24 hours. ALDH activity was determined by FACS based on aldefluor fluorescence. Cells treated with DEAB inhibitor were negative controls. Results are expressed as fold changes of ALDH expression. (P<0.05 for all, n=3 repeats per group). (K-M) IL-22 stimulates core stem cell gene expression in colon cancer cells. DLD-1 colon cancer cells were cultured with IL-22 (20 ng/ml). The mRNA of stem cell core gene was detected by real-time PCR (K) and proteins were detected by western blotting (L, M). (*P<0.05, n=5).
IL-22 treated 10^6 DLD-1 cells were inoculated into NSG mice. Tumor incidence (A) and tumor growth (B) were recorded. n=5 per group, P<0.05.
To confirm the tumorigenic potential of endogenous IL-22, different concentrations of a colorectal adenocarcinoma cancer cell line, DLD-1 cells, were injected into the NSG mice to determine a nontumorigenic concentration. […] However, exogenous IL-22 administration enabled tumor formation with 10^5DLD-1 cells as shown by increased tumor volume (FIG. 1E) and incidence (FIG. 1F) and decreased mouse survival (FIG. 1G). When 10^6 DLD-1 cells were inoculated into mice, IL-22 accelerated tumor development (FIG. 13A) and growth as well (FIG. 13B). Thus, IL-22 may enhance tumorigenesis by altering cancer stem cell properties.
Colon cancer cells (10^2-5×10^6) in 100 μl of buffered saline were subcutaneously injected into dorsal tissues of female NOD/Shi-scid/IL-2Rγnull (NSG) mice (6-8 weeks old, Jackson Lab, Bar Harbor, Me.) (see, e.g., Curiel, T. J. et al. (2004) Nat Med 10, 942-949; Curiel, T. J. et al. (2003) Nat Med 9, 562-567; Kryczek, I. et al. (2012) Int J Cancer 130, 29-39). Tumor size was measured two times weekly using calipers fitted with a Vernier scale. Tumor volume was calculated based on three perpendicular measurements (see, e.g., Curiel, T. J. et al. (2004) Nat Med 10, 942-949; Curiel, T. J. et al. (2003) Nat Med 9, 562-567). Tumor incidence was monitored.

Test [1] concerns H3K27me3 in the promoter of p16 and p18. Kind of test: H3K27me3 ChIP at p16 and p18 promoters. To be noted: after IL-22 stimulation. It counts as cell-based, human. Here is the method: A, C. Cell proliferation was analyzed using H^3 Thymidine Incorporation. B. The level of total H3K79m2 and H3K27me3 was measured by Western Blot. D. PcG proteins of EZH2, EED, SUZ12 was increased with IL-22(20 ng/ml) treatment. E. EZH2, SUZ12 and EED was detected by Western Blot after IL-22 treated for 24 h or 48 h. F. EZH2 inhibitor DZNep reduced cell proliferation. G.H. The efficiency of EZH2 and SUZ12 knock down was tested by Western Blot. I.J. Cell proliferation was analyzed using H^3 Thymidine Incorporation after knock down of EZH2 and SUZ12. K.L. Relative expression of cyclin-dependent kinase inhibitors (p16 and p18) in shEZH2, shSUZ12 and Dznep treated cells after IL-22 treatment. M. The level of H3K27me3 in the promoter of p16 and p18 was analyzed by ChIP assay.
ChIP assay was performed according to the protocol (Upstate, Millipore; htt, followed by, p://www.millip, followed by, ore.com/techpublica, followed by, tions/tech1/mcproto407). Crosslinking was performed with 1% formaldehyde or 1% paraformaldehyde for 10 min. To enhance cell lysis, we ran the lysate through a 27 g needle three times and flash froze it in −80° C. Sonication was then performed with the Misonix 4000 water bath sonication unit at 15% amplitude for 10 min. Protein/DNA complex was precipitated by specific antibodies against H3K79me2, H3K27me3 (Millipore), Stat3 (Cell Signaling) and IgG control (Millipore). […]

Setting [2] is: 10^5 DLD-1 cells pre-incubated with IL-22 (20 ng/ml) 1 hour.

On to “IL-22: recombinant IL-22 (R&D systems), cytokine interleukin-22”, for which, in the test with DLD-1 colon cancer cells (setting [2]), the mouse survival entry is reported as “decreased”, the tumor incidence result was “increased” and the tumor volume result is on record as “increased”. In the test on DLD-1 colon cancer cells (10^6 IL-22 treated DLD-1 cells), the “tumor development (incidence)” value was “accelerated” and the tumor growth result was “accelerated”. Also, the “level of H3K27m3 in the promoter of p16 and p18” value in test [1] was “increased”.
